From PMC4061029, “A Stable and Reproducible Human Blood-Brain Barrier Model Derived from Hematopoietic Stem Cells” (PLoS ONE, 2014)

Tests used:
[1] = system: cord blood-derived ECs co-cultured with astrocytes; set-up: method as in PMID 24392113; conditions: BBB model of cord blood-derived ECs co-cultured with astrocytes; cited from earlier work
[2] = system: brain-like endothelial cells (BLECs); assay: Endothelial permeability (Pe) to Lucifer yellow, ECs co-cultured with pericytes (BLECs); format: in vitro ADME, human; conditions: day 6, n = 60
Procedure: For co-culture experiments, pericytes were initially seeded on 60-mm gelatin-coated petri dishes and cultured in Dulbecco’s Modified Eagle’s Medium (DMEM) (Life Technologies) supplemented with 20% (v/v) FBS (Life Technologies), 2 mM L-glutamine, 50 µg/mL gentamycin and 1 ng/mL bFGF. The cells reached confluency after 2 days. 45×10^3 cells were seeded into each well of 12-well plates (Costar). […]
Prior to the experiments, HEPES-buffered Ringer’s solution (in some cases EBM-2 medium) was added to empty wells of a 12-well plate (Costar). […] Aliquots from the donor solution were taken at the beginning and at the end of the experiments and the fluorescence was quantified. […] Fluorescence detection was carried out on a Synergy H1 multiplates reader (Biotek) using the following excitation/emission wavelength (nm) settings: 432/538; 490/516; 542/570 for Lucifer yellow, Fluorescein Na and Cy3-Human Serum Albumin and Human IgG respectively.
To obtain a concentration-independent transport parameter, the clearance principle was used. The increment in cleared volume was calculated by dividing the amount of compound in the receiver compartment by the drug concentration in the donor compartment. […] The PS-value for endothelial monolayer (PSe) was calculated. […]

[3] = system: monolayers of CD34+-derived ECs (monoculture); assay: Endothelial permeability (Pe) to Lucifer yellow, ECs in monoculture; format: in vitro ADME, human; conditions: CD34+-derived ECs grown to confluence on filters for 6 days
Procedure: (§1) Prior to the experiments, HEPES-buffered Ringer’s solution (in some cases EBM-2 medium) was added to empty wells of a 12-well plate (Costar). Filter inserts, containing confluent monolayers of CD34^+-ECs, were subsequently placed in the 12-well plate, filled with compound solution containing the fluorescent integrity marker Lucifer Yellow (20 µM; Life Technologies), and then placed on an orbital shaker. After 1 h, filter inserts were withdrawn from the receiver compartment. Aliquots from the donor solution were taken at the beginning and at the end of the experiments and the fluorescence was quantified. At least three inserts with cells and three without cells were tested in each permeability measurement. Fluorescence detection was carried out on a Synergy H1 multiplates reader (Biotek) using the following excitation/emission wavelength (nm) settings: 432/538; 490/516; 542/570 for Lucifer yellow, Fluorescein Na and Cy3-Human Serum Albumin and Human IgG respectively.
To obtain a concentration-independent transport parameter, the clearance principle was used. The increment in cleared volume was calculated by dividing the amount of compound in the receiver compartment by the drug concentration in the donor compartment. The volume cleared was plotted versus time and the slope estimated by linear regression analysis. […] The PS-value for endothelial monolayer (PSe) was calculated. […]

BLECs = assay: Expression of adhesion molecules by BLECs (FACS); format: cell-based, human; conditions: 10 ng/mL for 24 h
Procedure: Adhesion molecule expression by BLECs was determined by FACS. For these experiments, CD34^+-ECs were cultured with pericytes for 6 days. After co-culture, transwells with BLEC monolayers were transferred to a new 12-well plate. BLECs were treated with 10 ng/mL TNF-α (Peprotech) for 24 h. Untreated BLECs were used as control. Cells were dissociated from the culture plate by exposure to Cell Dissociation Buffer (Life Technologies) for 3–5 min and gentle pipetting, centrifuged and finally resuspended in PBS supplemented with 5% (v/v) FBS. The single cell suspensions were aliquoted (2.0×10^5 cells per condition) and incubated with primary antibodies against human CD40, ICAM1, ICAM2, VCAM1, PECAM1 (Table S1). After the incubation with primary antibodies, cells were incubated with phycoerytrin (PE)-conjugated anti-rabbit (R&D Systems), and PE-conjugated anti-mouse (Santa Cruz) secondary antibodies. FACS Calibur (BD Biosciences) and BD Cell Quest Software (BD Biosciences) were used for the acquisition and analysis of the data.
FACS analysis. Cells were dissociated from the culture plate by exposure to Cell Dissociation Buffer (Life Technologies) for 3-5 min and gentle pipetting, centrifuged and finally resuspended in PBS supplemented with 5% (v/v) FBS. […]

CD34+-derived ECs [4] = assay: qRT-PCR of claudin-1 and LEF1 in ECs treated with Wnt ligands; format: cell-based, human; conditions: EC monoculture
Procedure: (§2) For Wnt signaling experiments, mono- and co-culture systems were used. In monoculture, 8×10^4 CD34^+-ECs were seeded on the Matrigel-coated transwell insert. The cells were then incubated with agonists/ligands (6.25 ng/mL–100 ng/mL Wnt3A (R&D Systems), 6.25 ng/mL–250 ng/mL Wnt7A (Peprotech) or 0.5–5 µM BIO (Sigma)) for 1 or 5 days. Co-cultures were prepared as described before. The CD34^+-derived ECs co-cultured with pericytes for 1 or 6 days were used in the signaling experiments. Agonist (0.5–5 µM BIO) was added into the basolateral compartment while antagonist (0.1–3 µM XAV939 (Selleckbio)) was added in the apical part of the transwell system.
Reverse transcription and quantitative real time polymerase chain reaction (qRT-PCR) analysis. CD34^+-ECs cultured in different conditions were homogenized in Trizol reagent (Life Technologies) and total RNA was extracted using the RNeasy Mini Kit (Qiagen), according to manufacturer’s instructions. In all cases, cDNA was prepared from 1 μg total RNA using Taqman Reverse transcription reagents (Applied Biosystems). Non-quantitative RT-PCR was performed using the conditions described in [4] and DNA migrated on a agarose gel electrophoresis (1.5%) with a low range DNA molecular weight marker (Euromedex) to visualize the sizes. Gels were then stained with gel red nucleic acid gel stain (Interchim) and visualized on a UV light transilluminator (Bio-Rad). Quantitative real time PCR (qRT-PCR) was performed using Power SYBR Green PCR Master Mix (Applied Biosystems) and the detection was carried out in a 7500 Fast Real-Time PCR System (Applied Biosystems). Quantification of target genes was performed relatively to the reference GAPDH gene: relative expression = 2^[-(Ctsample^-CtGADPH^)]. Primer sequences are given as supporting information (Table S2).

β-catenin = assay: Wnt signaling experiments: β-catenin expression in monocultures of ECs; format: cell-based, human; conditions: EC monoculture; for expression of active β-catenin: after 1 day; for expression and nuclear localization of total β-catenin: day 3, BIO 0.5 µM, Wnt3a 6.25 ng/mL
Procedure: For Wnt signaling experiments, mono- and co-culture systems were used. In monoculture, 8×10^4 CD34^+-ECs were seeded on the Matrigel-coated transwell insert. […] Co-cultures were prepared as described before. The CD34^+-derived ECs co-cultured with pericytes for 1 or 6 days were used in the signaling experiments. Agonist (0.5–5 µM BIO) was added into the basolateral compartment while antagonist (0.1–3 µM XAV939 (Selleckbio)) was added in the apical part of the transwell system.
Immunostaining. Cells were fixed in cold methanol/acetone (50%/50% v/v) for 1 min or 4% (v/v) paraformaldehyde (Electron Microscopy Sciences, EMS) for 10 min at room temperature (see Table S1). After permeabilizing the cells with 0.1% (v/v) Triton X-100 (Sigma-Aldrich) for 5-10 min, whenever required, and blocking for 30 min with 1% (w/v) bovine serum albumin (BSA) solution (Sigma-Aldrich) or normal goat serum (10% (v/v), Sigma-Aldrich), the cells were incubated for 1 h with the primary monoclonal antibodies listed in Table S1, at room temperature. After washing, the cells were stained with a secondary antibody for 1 h in the dark at room temperature (Table S1). In each immunofluorescence experiment, an isotype-matched IgG control was used. The nuclei of cells was stained with 4',6-diamidino-2-phenylindole (DAPI; Sigma-Aldrich) or Hoescht reagent (ICN Pharmaceuticals). Cells were mounted using Mowiol (Sigma-Aldrich) containing an anti-fading agent (Dabco, Sigma-Aldrich) or cell-mounting medium from DAKO. Cells were examined with a Zeiss LSM 50 confocal microscope or with a Leica DMR fluorescence microscope (Leica Microsystems). In the last case, images were collected using a Cool SNAP RS Photometrics camera (Leica Microsystems) and were processed using Adobe Photoshop software 5.5 (Adobe systems).
FACS analysis. Cells were dissociated from the culture plate by exposure to Cell Dissociation Buffer (Life Technologies) for 3-5 min and gentle pipetting, centrifuged and finally resuspended in PBS supplemented with 5% (v/v) FBS. The single cell suspensions were aliquoted (2.0×10^5 cells per condition), fixed with 4% (v/v) paraformaldehyde (PFA; EMS) or ice-cold absolute methanol and permeabilized with 0.1% (w/v) Triton X-100 (Fluka) when necessary. The cells were stained with antigen-specific primary antibodies (dilution ratios and list of antibodies are given on Table S1). After the incubation with primary antibodies, cells were incubated with phycoerytrin (PE)-conjugated anti-rabbit (R&D Systems), and PE-conjugated anti-mouse (Santa Cruz) secondary antibodies. FACS Calibur (BD Biosciences) and BD Cell Quest Software (BD Biosciences) were used for the acquisition and analysis of the data.

[5] = system: monocultures of CD34+-derived ECs; assay: Wnt signaling experiments: paracellular permeability of treated EC monocultures; format: cell-based, human; conditions: Wnt3a 6.25 ng/mL
Procedure: as §1
To obtain a concentration-independent transport parameter, the clearance principle was used. The increment in cleared volume was calculated by dividing the amount of compound in the receiver compartment by the drug concentration in the donor compartment. The volume cleared was plotted versus time and the slope estimated by linear regression analysis. The slope of the clearance curve with inserts alone and inserts with cells is equal to PSf and PSt, respectively, where PS (microliters/minute) is the permeability surface area (square centimeter) product. The PS-value for endothelial monolayer (PSe) was calculated. To generate the endothelial permeability coefficient, Pe (cm/min), the PSe value was divided by the surface area of the filter (A in cm^2) insert using the following equation: Pe = [1/PSt−1/PSf]^−1/A. To assess possible adsorption to plastics and non-specific binding to cells, the mass balance (%) was calculated from the amount of compound recovered in both compartments at the end of the experiment divided by the total amount added in the donor compartment at time zero. For Pe determination, mass balance value should be between 80% and 120%.
as §2

CD34+-derived ECs [6] = assay: Immunostaining of claudin-1 in treated EC monocultures; format: cell-based, human; conditions: EC monoculture, day 6; BIO 0.5 µM, Wnt3a 6.25 ng/mL
Procedure: as §2
Immunostaining. Cells were fixed in cold methanol/acetone (50%/50% v/v) for 1 min or 4% (v/v) paraformaldehyde (Electron Microscopy Sciences, EMS) for 10 min at room temperature (see Table S1). After permeabilizing the cells with 0.1% (v/v) Triton X-100 (Sigma-Aldrich) for 5-10 min, whenever required, and blocking for 30 min with 1% (w/v) bovine serum albumin (BSA) solution (Sigma-Aldrich) or normal goat serum (10% (v/v), Sigma-Aldrich), the cells were incubated for 1 h with the primary monoclonal antibodies listed in Table S1, at room temperature. […] Cells were examined with a Zeiss LSM 50 confocal microscope or with a Leica DMR fluorescence microscope (Leica Microsystems). […]

P-gp = P-gp (Homo sapiens, UniProt P08183); conditions: [3H]-vincristine sulphate 66.5 nM, 2 h; 25 μM verapamil or 0.5 μM elacridar
Sequence of P-gp (P08183 whole entry): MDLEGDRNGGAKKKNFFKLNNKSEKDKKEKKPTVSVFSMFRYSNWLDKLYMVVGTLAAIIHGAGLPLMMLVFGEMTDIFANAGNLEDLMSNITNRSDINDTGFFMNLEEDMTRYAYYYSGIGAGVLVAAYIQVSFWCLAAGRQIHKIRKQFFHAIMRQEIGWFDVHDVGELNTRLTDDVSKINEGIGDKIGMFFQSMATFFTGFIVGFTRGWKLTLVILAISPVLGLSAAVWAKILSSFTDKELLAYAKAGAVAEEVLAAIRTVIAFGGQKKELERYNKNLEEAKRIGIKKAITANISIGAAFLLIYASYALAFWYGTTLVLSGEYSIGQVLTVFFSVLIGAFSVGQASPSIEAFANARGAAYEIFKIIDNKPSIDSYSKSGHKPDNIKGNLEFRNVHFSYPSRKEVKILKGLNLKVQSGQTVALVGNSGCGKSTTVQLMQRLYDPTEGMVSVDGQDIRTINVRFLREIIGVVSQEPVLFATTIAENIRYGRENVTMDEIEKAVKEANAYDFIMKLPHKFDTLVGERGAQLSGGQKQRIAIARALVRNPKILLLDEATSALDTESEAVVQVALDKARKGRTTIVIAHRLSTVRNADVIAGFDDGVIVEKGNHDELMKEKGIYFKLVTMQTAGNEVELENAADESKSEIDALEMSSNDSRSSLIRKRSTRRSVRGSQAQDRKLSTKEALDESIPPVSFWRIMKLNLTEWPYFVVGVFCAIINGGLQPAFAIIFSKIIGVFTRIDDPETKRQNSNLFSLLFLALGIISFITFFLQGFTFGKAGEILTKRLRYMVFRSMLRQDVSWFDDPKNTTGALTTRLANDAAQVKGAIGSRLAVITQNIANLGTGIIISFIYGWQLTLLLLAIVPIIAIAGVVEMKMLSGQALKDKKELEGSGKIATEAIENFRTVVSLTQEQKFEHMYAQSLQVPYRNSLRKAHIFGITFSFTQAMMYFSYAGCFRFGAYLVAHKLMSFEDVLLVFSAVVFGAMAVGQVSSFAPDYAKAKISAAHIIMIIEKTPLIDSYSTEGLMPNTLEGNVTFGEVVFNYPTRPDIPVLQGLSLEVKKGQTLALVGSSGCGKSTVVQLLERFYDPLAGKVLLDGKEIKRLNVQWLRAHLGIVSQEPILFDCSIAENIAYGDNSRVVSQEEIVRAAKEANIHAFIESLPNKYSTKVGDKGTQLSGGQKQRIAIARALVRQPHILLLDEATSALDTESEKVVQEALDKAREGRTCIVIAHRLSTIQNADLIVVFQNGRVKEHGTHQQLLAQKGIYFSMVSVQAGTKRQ

[7] = long-term: 1 day of monoculture + 5 day of treatment, Wnt7a 6.25 ng/mL, BIO 0.5 µM

Molecule: Lucifer yellow
- Pe to Lucifer yellow [1]: 20.5 ×10⁻⁶ cm/s
- permeability to Lucifer yellow [2]: 0.61±0.15×10^−3 cm/min
- permeability to Lucifer yellow [3]: 33.3 ×10⁻⁶ cm/s

Molecule: TNF-α
- expression of ICAM-1, ICAM-2, CD40 and VCAM-1 (BLECs): up-regulation

Molecule: O=C1Nc2cc(Br)ccc2/C1=C1/Nc2ccccc2/C1=N\O [BIO]
- LEF1 gene expression (CD34+-derived ECs [4]): up-regulation
- claudin-1 gene expression (CD34+-derived ECs [4]): up-regulation
- expression of active β-catenin (β-catenin): increasing
- expression and nuclear localization of total β-catenin (β-catenin): increase
- paracellular permeability to Lucifer Yellow versus untreated cells [5, 7]: only observed after 5-day treatment
- localization of claudin-1 (CD34+-derived ECs [6]): localization of claudin-1 at the cell-cell contacts

Molecule: COc1cc2c(cc1OC)CN(CCc1ccc(NC(=O)c3cccc4c(=O)c5cccc(OC)c5[nH]c34)cc1)CC2 [elacridar]
- accumulation of vincristine in BLECs on inhibition of P-gp (P-gp): significant increase

B1: Wnt7a: human recombinant protein Wnt7a, Wnt ligand (protein, UniProt O00755 32-349, looked up)
Protein Wnt-7a: LGASIICNKIPGLAPRQRAICQSRPDAIIVIGEGSQMGLDECQFQFRNGRWNCSALGERTVFGKELKVGSREAAFTYAIIAAGVAHAITAACTQGNLSDCGCDKEKQGQYHRDEGWKWGGCSADIRYGIGFAKVFVDAREIKQNARTLMNLHNNEAGRKILEENMKLECKCHGVSGSCTTKTCWTTLPQFRELGYVLKDKYNEAVHVEPVRASRNKRPTFLKIKKPLSYRKPMDTDLVYIEKSPNYCEEDPVTGSVGTQGRACNKTAPQASGCDLMCCGRGYNTHQYARVWQCNCKFHWCCYVKCNTCSERTEMYTCK
- paracellular permeability to Lucifer Yellow versus untreated cells [5, 7]: only observed after 5-day treatment

B2: Wnt3a: human recombinant protein Wnt3a, Wnt ligand (protein, UniProt P56704 19-352, looked up)
Protein Wnt-3a: SYPIWWSLAVGPQYSSLGSQPILCASIPGLVPKQLRFCRNYVEIMPSVAEGIKIGIQECQHQFRGRRWNCTTVHDSLAIFGPVLDKATRESAFVHAIASAGVAFAVTRSCAEGTAAICGCSSRHQGSPGKGWKWGGCSEDIEFGGMVSREFADARENRPDARSAMNRHNNEAGRQAIASHMHLKCKCHGLSGSCEVKTCWWSQPDFRAIGDFLKDKYDSASEMVVEKHRESRGWVETLRPRYTYFKVPTERDLVYYEASPNFCEPNPETGSFGTRDRTCNVSSHGIDGCDLLCCGRGHNARAERRREKCRCVFHWCCYVSCQECTRVYDVHTCK
- LEF1 gene expression (CD34+-derived ECs [4]): up-regulation
- claudin-1 gene expression (CD34+-derived ECs [4]): up-regulation
- expression of active β-catenin (β-catenin): increasing
- expression and nuclear localization of total β-catenin (β-catenin): increase
- paracellular permeability to Lucifer Yellow versus untreated cells [5, 7]: statistical lower
- paracellular permeability to Lucifer Yellow versus untreated cells ([5]; short-term: 5 days of monoculture + 1 day of treatment, P<0.01, n = 4): statistical lower
- localization of claudin-1 (CD34+-derived ECs [6]): localization of claudin-1 at the cell-cell contacts
